Where two headings read alike, the source gives them in different places.
Legend:
[1] = target: T1, Human cyclooxygenase 2 (COX-2) (Homo sapiens, UniProt P35354); assay: COX-2 inhibition, microsomal assay; details: 20 min, read-out: % Inhibition of COX Enzymes in Microsomal Assays, COX-2
T1 sequence (P35354 18-604): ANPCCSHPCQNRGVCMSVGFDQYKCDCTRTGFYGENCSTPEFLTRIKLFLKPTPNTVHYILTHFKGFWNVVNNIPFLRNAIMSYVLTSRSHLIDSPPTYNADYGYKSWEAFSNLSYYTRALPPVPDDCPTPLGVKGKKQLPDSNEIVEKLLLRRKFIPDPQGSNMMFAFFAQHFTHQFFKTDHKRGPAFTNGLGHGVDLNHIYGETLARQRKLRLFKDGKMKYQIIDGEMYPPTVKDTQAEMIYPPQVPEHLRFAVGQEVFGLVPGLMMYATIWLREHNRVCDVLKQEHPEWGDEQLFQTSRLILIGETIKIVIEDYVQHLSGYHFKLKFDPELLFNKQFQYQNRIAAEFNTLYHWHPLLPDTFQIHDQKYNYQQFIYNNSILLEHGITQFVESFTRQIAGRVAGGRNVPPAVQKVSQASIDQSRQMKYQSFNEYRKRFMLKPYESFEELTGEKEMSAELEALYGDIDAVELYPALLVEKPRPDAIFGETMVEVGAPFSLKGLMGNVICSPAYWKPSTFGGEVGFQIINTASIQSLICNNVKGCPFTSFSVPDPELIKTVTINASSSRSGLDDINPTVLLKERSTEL
Description: (§1) Human cyclooxygenase 1 and 2 are expressed in a baculovirus expression system using High 5 insect cells. Microsomal fractions prepared from the cells are stored at -80° C. The assays are performed at room temperature in phosphate buffered saline. After incubating the COX-1 or COX-2 microsomes with hematin (2 μM), phenol (0.5 mM) and reduced glutathione (1 mM) for 5 minutes, inhibitor or DMSO vehicle is added and allowed to incubate for 20 minutes. Arachidonic acid (2 μM) is added and after 20 minutes the reaction is stopped by the addition of HCl (0.1 N HCl final concentration).
(§2) The inhibitory activities against COX-1 and COX-2 of the compounds described in the above Synthetic Examples were determined using the two in vitro assays described above.

[2] = target: Human cyclooxygenase 1 (COX-1) (Homo sapiens, UniProt P23219); assay: COX-1 inhibition, microsomal assay; details: 20 min, read-out: % Inhibition of COX Enzymes in Microsomal Assays, COX-1
Human cyclooxygenase 1 (COX-1), sequence (P23219 24-599): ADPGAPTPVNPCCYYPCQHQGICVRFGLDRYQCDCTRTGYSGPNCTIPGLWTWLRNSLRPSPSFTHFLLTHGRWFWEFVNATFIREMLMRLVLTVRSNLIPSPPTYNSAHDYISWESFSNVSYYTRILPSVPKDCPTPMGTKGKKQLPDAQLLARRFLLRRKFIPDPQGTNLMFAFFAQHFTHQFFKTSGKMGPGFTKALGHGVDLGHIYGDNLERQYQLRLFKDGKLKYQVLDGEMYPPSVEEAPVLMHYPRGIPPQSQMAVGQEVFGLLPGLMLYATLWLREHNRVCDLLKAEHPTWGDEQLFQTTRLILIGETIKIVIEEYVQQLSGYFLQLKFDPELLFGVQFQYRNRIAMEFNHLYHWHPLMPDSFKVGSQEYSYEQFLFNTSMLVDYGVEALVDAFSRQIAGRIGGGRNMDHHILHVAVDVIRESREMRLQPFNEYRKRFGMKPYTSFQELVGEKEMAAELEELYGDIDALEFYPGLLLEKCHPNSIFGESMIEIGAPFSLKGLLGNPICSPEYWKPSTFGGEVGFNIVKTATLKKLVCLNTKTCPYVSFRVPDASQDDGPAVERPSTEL
Description: as §1, §2

human recombinant COX-2 = target: T2, human recombinant COX-2 (Homo sapiens, UniProt P35354); assay: COX-2 inhibition, COS cell assay; assay type: cell-based; details: for inhibition at 1 µM / inhibition at 10 µM / inhibition at 0.1 µM: COS, read-out: Inhibition of COX Enzymes in COS Cell Assays, COX-2 % inhibition; for IC50: COS cells, COX-2, read-out: Inhibition of COX Enzymes in COS Cell Assays, COX-2 IC50
T2 construct: expressed in transfected cells; host or cells: Cos-A2 cells, stably transfected
T2 sequence (P35354 18-604): T1 sequence (P35354 18-604)
Description: (§3) Cos-A2 cells stably transfected with human recombinant COX-1 or COX-2 are cultured in 96 well tissue culture plates with Dulbecco's Modified Eagle Medium supplemented with 10% fetal bovine serum, glutamine (2 mM), penicillin (50 U/mL), streptomycin ([…]) and geneticin (400 μg/mL). Media is removed from confluent monolayers and the cells are washed twice with Hank's buffered saline solution. Fresh HBSS is added, with or without inhibitor, and the cells are incubated for 30 minutes at 37° C. Arachidonic acid (30 μM) is then added and the cells are incubated for an additional one hour at 37° C. Individual experiments represent a mean of triplicate wells for control and inhibitor doses. Supernatents are removed and stored at -80° C. until assayed for PGE2 by EIA (Amersham).
as §2

human recombinant COX-1 = target: T3, human recombinant COX-1 (Homo sapiens, UniProt P23219); assay: COX-1 inhibition, COS cell assay; assay type: cell-based; details: for inhibition at 1 µM / inhibition at 10 µM / inhibition at 0.1 µM: COS, read-out: Inhibition of COX Enzymes in COS Cell Assays, COX-1 % inhibition
T3 construct: expressed in transfected cells; host or cells: Cos-A2 cells, stably transfected
T3 sequence (P23219 24-599): as above
Description: as §3, §2

[3] = test system: Carrageenan-induced paw edema; assay: Carrageenan-Induced Paw Edema in Rats; assay type: in vivo, rat; details: oral, 10 mg/kg; *p < 0.05
Description: The antiinflammatory activities of two compounds in accordance with the invention (those of Examples 1 and 10) were determined in vivo and compared to those of the known antiinflammatory agents indomethacin and meloxicam, using the Carrageenan-Induced Paw Edema in Rats protocol described by C. A Winter et al. J. Pharmacol. Exp. Ther. 1963, 141, 369. Test compounds were administered orally.

| SMILES | inhibition at 0.1 µg/mL [1] [%] | inhibition at 1 µg/mL [1] [%] | inhibition at 10 µg/mL [1] [%] | inhibition at 0.1 µg/mL [2] [%] | inhibition at 1 µg/mL [2] [%] | inhibition at 10 µg/mL [2] [%] | inhibition at 1 µM (human recombinant COX-2) [%] | inhibition at 10 µM (human recombinant COX-2) [%] | inhibition at 1 µM (human recombinant COX-1; 1 μM) [%] | inhibition at 10 µM (human recombinant COX-1; 10 μM) [%] | inhibition at 0.1 µM (human recombinant COX-2) [%] | inhibition at 0.1 µM (human recombinant COX-1) [%] | inhibition at 1 µM (human recombinant COX-1) [%] | inhibition at 10 µM (human recombinant COX-1) [%] | inhibition at 0.1 µM (human recombinant COX-1; 0.1 μM) [%] | IC50 (human recombinant COX-2) [nM] | IC50 (human recombinant COX-1; COS cells, COX-1, read-out: Inhibition of COX Enzymes in COS Cell Assays, COX-1 IC50) [nM] | Effect of Compounds in Carrageenen Paw Edema in Rats, % Inhibition [3] [%] |
| --- | --- | --- | --- | --- | --- | --- | --- | --- | --- | --- | --- | --- | --- | --- | --- | --- | --- | --- |
| CC(C)S(=O)(=O)C1C(=O)N(Cc2ccccc2F)C(=O)c2ccccc21 (stereo not shown) [Example 2, 2-(2-Fluorobenzyl)-4-(1-methylethyl)sulfonyl-4H-isoquinoline-1,3-dione] | 10 | 37 | 49 | -1 | 14 | 18 | 45 | 46 | 33 | 39 |  |  |  |  |  |  |  |  |
| CCCS(=O)(=O)C1C(=O)N(Cc2ccccc2)C(=O)c2ccccc21 (stereo not shown) [Example 3] | -6 | 15 | 27 | -9 | 22 | 33 |  |  |  |  |  |  |  |  |  |  |  |  |
| CCCCS(=O)(=O)C1C(=O)N(Cc2ccccc2)C(=O)c2ccccc21 (stereo not shown) [Example 4] | 0 | 30 | 20 | 4 | 15 | 15 |  |  |  |  |  |  |  |  |  |  |  |  |
| CC(C)S(=O)(=O)C1C(=O)N(Cc2ccccc2)C(=O)c2ccccc21 (stereo not shown) [Example 5] | 27 | 56 | 58 | -6 | 11 | 23 | 37 | 51 |  |  | 17 | 13 | 43 | 74 |  |  |  |  |
| CC(C)S(=O)(=O)C1C(=O)N(Cc2cccc(Cl)c2)C(=O)c2ccccc21 (stereo not shown) [Example 6] | 10 | 27 | 27 | -10 | 19 | 30 |  |  |  |  |  |  |  |  |  |  |  |  |
| CC(C)S(=O)(=O)C1C(=O)N(Cc2ccc(Cl)cc2)C(=O)c2ccccc21 (stereo not shown) [Example 7] | 3 | 62 | 67 | -3 | 4 | 36 | 52 | 74 | 46 | 72 | 26 |  |  |  | 6 |  |  |  |
| CC(C)S(=O)(=O)C1C(=O)N(Cc2ccc(F)cc2)C(=O)c2ccccc21 (stereo not shown) [Example 8] | -1 | 68 | 86 |  |  |  |  |  |  |  |  |  |  |  |  | 90 |  |  |
| CC(C)S(=O)(=O)C1C(=O)N(Cc2ccc(F)c(F)c2)C(=O)c2ccccc21 (stereo not shown) [Example 9] | 8 | 75 | 80 | 10 | 17 | 57 |  |  |  |  |  |  |  |  |  | 200 | 570 |  |
| O=C1c2ccccc2C(S(=O)(=O)CC(F)(F)F)C(=O)N1Cc1ccccc1 (stereo not shown) [Example 11] | 23 | 32 | 52 | 4 | 21 | 50 | 0 | 30 | 0 | 64 |  |  |  |  |  | 64000 |  |  |
| O=C1c2ccccc2C(S(=O)(=O)c2ccccc2)C(=O)N1Cc1ccccc1 (stereo not shown) [Example 12] |  |  |  | 17 | 59 | 74 |  |  | 61 | 85 |  |  |  |  | 22 |  |  |  |
| O=C1c2ccccc2C(S(=O)(=O)c2ccc(Br)cc2)C(=O)N1Cc1ccccc1 (stereo not shown) [Example 13] | 28 | 92 | 100 | 44 | 74 | 100 |  |  |  |  |  |  |  |  |  |  |  |  |
| Cc1ccc(S(=O)(=O)C2C(=O)N(Cc3ccccc3)C(=O)c3ccccc32)cc1 (stereo not shown) [Example 14] | -13 | 63 | 100 | 59 | 93 | 100 |  |  |  |  |  |  |  |  |  |  |  |  |
| O=C1c2ccccc2C(S(=O)(=O)c2ccc3ccccc3c2)C(=O)N1Cc1ccccc1 (stereo not shown) [Example 15] | -29 | 14 | 34 | 23 | 24 | 57 |  |  |  |  |  |  |  |  |  |  |  |  |
| COc1ccc(S(=O)(=O)C2C(=O)N(Cc3ccccc3)C(=O)c3ccccc32)cc1 (stereo not shown) [Example 16] | 21 | 74 | 97 | 33 | 81 | 93 |  |  |  |  |  |  |  |  |  |  |  |  |
| CC(C)(C)c1ccc(S(=O)(=O)C2C(=O)N(Cc3ccccc3)C(=O)c3ccccc32)cc1 (stereo not shown) [Example 17] | 20 | 12 | 39 | 17 | 20 | 45 |  |  |  |  |  |  |  |  |  |  |  |  |
| O=C1c2ccccc2C(S(=O)(=O)c2ccc(F)cc2)C(=O)N1Cc1ccccc1 (stereo not shown) [Example 18] | 33 | 66 | 81 | 48 | 76 | 92 |  |  |  |  |  |  |  |  |  |  |  |  |
| O=C1c2ccccc2C(S(=O)(=O)c2ccc(Cl)cc2)C(=O)N1Cc1ccccc1 (stereo not shown) [Example 19] | 59 | 89 | 93 | 52 | 71 | 89 |  |  |  |  |  |  |  |  |  |  |  |  |
| O=C1c2ccccc2C(S(=O)(=O)c2ccc([N+](=O)[O-])cc2)C(=O)N1Cc1ccccc1 (stereo not shown) [Example 20] | 20 | 37 | 46 | 21 | 41 | 62 |  |  |  |  |  |  |  |  |  |  |  |  |
| O=C1c2ccccc2C(S(=O)(=O)c2cccs2)C(=O)N1Cc1ccccc1 (stereo not shown) [Example 21] | 12 | 46 | 48 | 17 | 14 | 67 | 80 | 89 | 67 | 94 | 65 |  |  |  | 35 |  |  |  |
| COc1ccc2c(c1)c(CC(=O)O)c(C)n2C(=O)c1ccc(Cl)cc1 [Indomethacin, reference compound] |  |  |  |  |  |  |  |  |  |  |  |  |  |  |  |  |  | 58 |

Source: patent US5741798A, “2-benzyl-4-sulfonyl-4H-isoquinolin-1,3-diones and their use as antiinflammatory agents” (priority 1997, dated 1998)
